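Dose response: 5 concentrations. Exposure: 48 h. Format: 96-well plates. Endpoint: linear interpolation; highest concentration if not reached. Here, GI50 denotes the concentration required for 50% inhibition of growth. TGI: concentration producing complete growth inhibition.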
Key:
Experiment in all cases: NCI-60 cell line screen, 48 h
SF-295 CNS = tested on: SF-295 CNS
SK-OV-3 ovarian = tested on: SK-OV-3 ovarian
NCI-H522 lung = tested on: NCI-H522 lung
IGROV1 ovarian = tested on: IGROV1 ovarian
BT-549 breast = tested on: BT-549 breast
RXF 393 renal = tested on: RXF 393 renal
T-47D breast = tested on: T-47D breast
HT29 colon = tested on: HT29 colon
MOLT-4 leukemia = tested on: MOLT-4 leukemia
LOX IMVI melanoma = tested on: LOX IMVI melanoma
MALME-3M melanoma = tested on: MALME-3M melanoma
HCT-15 colon = tested on: HCT-15 colon
HS 578T breast = tested on: HS 578T breast
HL-60(TB) leukemia = tested on: HL-60(TB) leukemia
PC-3 prostate = tested on: PC-3 prostate
CCRF-CEM leukemia = tested on: CCRF-CEM leukemia
SK-MEL-28 melanoma = tested on: SK-MEL-28 melanoma
COLO 205 colon = tested on: COLO 205 colon
HOP-62 NSCLC = tested on: HOP-62 NSCLC
TK-10 renal = tested on: TK-10 renal
OVCAR-3 ovarian = tested on: OVCAR-3 ovarian
K-562 leukemia = tested on: K-562 leukemia
UACC-257 melanoma = tested on: UACC-257 melanoma
SF-539 CNS = tested on: SF-539 CNS
SR leukemia = tested on: SR leukemia
HCC-2998 colon = tested on: HCC-2998 colon
NCI-H460 lung = tested on: NCI-H460 lung
NCI-H23 lung = tested on: NCI-H23 lung
MDA-MB-435 = tested on: MDA-MB-435
SN12C renal = tested on: SN12C renal
RPMI-8226 leukemia = tested on: RPMI-8226 leukemia
SW-620 colon = tested on: SW-620 colon
CAKI-1 renal = tested on: CAKI-1 renal
UACC-62 melanoma = tested on: UACC-62 melanoma
U251 CNS = tested on: U251 CNS
A498 renal = tested on: A498 renal
M14 melanoma = tested on: M14 melanoma
HOP-92 NSCLC = tested on: HOP-92 NSCLC
SK-MEL-5 melanoma = tested on: SK-MEL-5 melanoma
OVCAR-4 ovarian = tested on: OVCAR-4 ovarian
OVCAR-5 ovarian = tested on: OVCAR-5 ovarian
SNB-19 CNS = tested on: SNB-19 CNS
NCI-H226 lung = tested on: NCI-H226 lung
MDA-MB-468 breast = tested on: MDA-MB-468 breast
A549 NSCLC = tested on: A549 NSCLC
DU-145 prostate = tested on: DU-145 prostate
HCT-116 colon = tested on: HCT-116 colon
EKVX NSCLC = tested on: EKVX NSCLC
ACHN renal = tested on: ACHN renal
NCI/ADR-RES ovarian = tested on: NCI/ADR-RES ovarian
786-0 renal = tested on: 786-0 renal
MCF7 breast = tested on: MCF7 breast
OVCAR-8 ovarian = tested on: OVCAR-8 ovarian
SF-268 CNS = tested on: SF-268 CNS
KM12 colon = tested on: KM12 colon

`O=C(Nc1nc2ccc([N+](=O)[O-])cc2s1)Nc1cc(Cl)ccc1I` showed a GI50 (SF-295 CNS) of 5.56 µM, a TGI (SF-295 CNS) of 18.6 µM and a GI50 (SK-OV-3 ovarian) of 7.84 µM. It also gave a TGI (SK-OV-3 ovarian) of 20.4 µM, a GI50 (NCI-H522 lung) of 2.95 µM and a TGI (NCI-H522 lung) of 10.6 µM. It also gave a GI50 (IGROV1 ovarian) of 4.49 µM, a TGI (IGROV1 ovarian) of 15.8 µM and a GI50 (BT-549 breast) of 3.56 µM. For the same molecule, the TGI (BT-549 breast) was 14.5 µM, the GI50 (RXF 393 renal) was 7.38 µM and the TGI (RXF 393 renal) was 20.3 µM. It also gave a GI50 (T-47D breast) of 3.7 µM, a TGI (T-47D breast) of 14.5 µM and a GI50 (HT29 colon) of 11.4 µM. The TGI (HT29 colon) was 24.2 µM, the GI50 (MOLT-4 leukemia) was 3.43 µM and the TGI (MOLT-4 leukemia) was 12 µM. The GI50 (LOX IMVI melanoma) was 5.85 µM, the TGI (LOX IMVI melanoma) was 18.1 µM and the GI50 (MALME-3M melanoma) was 3.26 µM. The TGI (MALME-3M melanoma) was 13.1 µM, the GI50 (HCT-15 colon) was 4.04 µM and the TGI (HCT-15 colon) was 15.6 µM. For the same molecule, the GI50 (HS 578T breast) was 4.71 µM, the TGI (HS 578T breast) was 20.8 µM and the GI50 (HL-60(TB) leukemia) was 3.81 µM. For the same molecule, the TGI (HL-60(TB) leukemia) was 16.8 µM, the GI50 (PC-3 prostate) was 3.78 µM and the TGI (PC-3 prostate) was 13.5 µM. It also gave a GI50 (CCRF-CEM leukemia) of 3.4 µM, a TGI (CCRF-CEM leukemia) of 12.4 µM and a GI50 (SK-MEL-28 melanoma) of 4.75 µM. The TGI (SK-MEL-28 melanoma) was 16.6 µM, the GI50 (COLO 205 colon) was 10.8 µM and the TGI (COLO 205 colon) was 22.9 µM. It also gave a GI50 (HOP-62 NSCLC) of 9.29 µM, a TGI (HOP-62 NSCLC) of 21.7 µM and a GI50 (TK-10 renal) of 8.2 µM. For the same molecule, the TGI (TK-10 renal) was 20.7 µM, the GI50 (OVCAR-3 ovarian) was 4.29 µM and the TGI (OVCAR-3 ovarian) was 14.8 µM. The GI50 (K-562 leukemia) was 3.55 µM, the TGI (K-562 leukemia) was 13.6 µM and the GI50 (UACC-257 melanoma) was 6.8 µM. For the same molecule, the TGI (UACC-257 melanoma) was 19.9 µM, the GI50 (SF-539 CNS) was 5.09 µM and the TGI (SF-539 CNS) was 17 µM. The GI50 (SR leukemia) was 3.16 µM, the TGI (SR leukemia) was 12.4 µM and the GI50 (HCC-2998 colon) was 4.7 µM. It also gave a TGI (HCC-2998 colon) of 16.2 µM, a GI50 (NCI-H460 lung) of 4.16 µM and a TGI (NCI-H460 lung) of 15.7 µM. It also gave a GI50 (NCI-H23 lung) of 2.78 µM, a TGI (NCI-H23 lung) of 8.9 µM and a GI50 (MDA-MB-435) of 6.4 µM. It also gave a TGI (MDA-MB-435) of 21 µM, a GI50 (SN12C renal) of 4.06 µM and a TGI (SN12C renal) of 15.8 µM. For the same molecule, the GI50 (RPMI-8226 leukemia) was 2.24 µM, the TGI (RPMI-8226 leukemia) was 5.66 µM and the GI50 (SW-620 colon) was 5.46 µM. It also gave a TGI (SW-620 colon) of 18.6 µM, a GI50 (CAKI-1 renal) of 5.87 µM and a TGI (CAKI-1 renal) of 19.3 µM. It also gave a GI50 (UACC-62 melanoma) of 4.11 µM, a TGI (UACC-62 melanoma) of 15.4 µM and a GI50 (U251 CNS) of 5.36 µM. It also gave a TGI (U251 CNS) of 17.8 µM, a GI50 (A498 renal) of 4.25 µM and a TGI (A498 renal) of 16.1 µM. The GI50 (M14 melanoma) was 10 µM, the TGI (M14 melanoma) was 22 µM and the GI50 (HOP-92 NSCLC) was 2.63 µM. For the same molecule, the TGI (HOP-92 NSCLC) was 7.46 µM, the GI50 (SK-MEL-5 melanoma) was 2.7 µM and the TGI (SK-MEL-5 melanoma) was 7.52 µM. The GI50 (OVCAR-4 ovarian) was 5.28 µM, the TGI (OVCAR-4 ovarian) was 19.3 µM and the GI50 (OVCAR-5 ovarian) was 11.6 µM. The TGI (OVCAR-5 ovarian) was 23.9 µM, the GI50 (SNB-19 CNS) was 5.5 µM and the TGI (SNB-19 CNS) was 18.1 µM. It also gave a GI50 (NCI-H226 lung) of 7.18 µM, a TGI (NCI-H226 lung) of 20.5 µM and a GI50 (MDA-MB-468 breast) of 3.54 µM. It also gave a TGI (MDA-MB-468 breast) of 10.6 µM, a GI50 (A549 NSCLC) of 9.8 µM and a TGI (A549 NSCLC) of 21.6 µM. For the same molecule, the GI50 (DU-145 prostate) was 8.17 µM, the TGI (DU-145 prostate) was 20.6 µM and the GI50 (HCT-116 colon) was 3.24 µM. For the same molecule, the TGI (HCT-116 colon) was 12 µM, the GI50 (EKVX NSCLC) was 3.6 µM and the TGI (EKVX NSCLC) was 13.6 µM. For the same molecule, the GI50 (ACHN renal) was 5.29 µM, the TGI (ACHN renal) was 17.4 µM and the GI50 (NCI/ADR-RES ovarian) was 4.85 µM. The TGI (NCI/ADR-RES ovarian) was 18.1 µM, the GI50 (786-0 renal) was 7.32 µM and the TGI (786-0 renal) was 20.2 µM. For the same molecule, the GI50 (MCF7 breast) was 3.05 µM, the TGI (MCF7 breast) was 12.1 µM and the GI50 (OVCAR-8 ovarian) was 12.9 µM. The TGI (OVCAR-8 ovarian) was 26.7 µM, the GI50 (SF-268 CNS) was 9.35 µM and the TGI (SF-268 CNS) was 23.9 µM. For the same molecule, the GI50 (KM12 colon) was 5.29 µM and the TGI (KM12 colon) was 17.7 µM.
